This passage reports inhibition results from publication PMC5540273, “Progress towards a public chemogenomic set for protein kinases and a call for contributions” (PLoS ONE, 2017).

What all share (assay): KINOMEscan competition binding
One assay concerns the target ABL1-phosphorylated (Homo sapiens, UniProt P00519). The following applies: read-out: %Inh ABL1-phosphorylated.
For a further assay, the target named is T1, BMPR2 (Homo sapiens, UniProt Q13873).
T1 sequence (Q13873 27-1038): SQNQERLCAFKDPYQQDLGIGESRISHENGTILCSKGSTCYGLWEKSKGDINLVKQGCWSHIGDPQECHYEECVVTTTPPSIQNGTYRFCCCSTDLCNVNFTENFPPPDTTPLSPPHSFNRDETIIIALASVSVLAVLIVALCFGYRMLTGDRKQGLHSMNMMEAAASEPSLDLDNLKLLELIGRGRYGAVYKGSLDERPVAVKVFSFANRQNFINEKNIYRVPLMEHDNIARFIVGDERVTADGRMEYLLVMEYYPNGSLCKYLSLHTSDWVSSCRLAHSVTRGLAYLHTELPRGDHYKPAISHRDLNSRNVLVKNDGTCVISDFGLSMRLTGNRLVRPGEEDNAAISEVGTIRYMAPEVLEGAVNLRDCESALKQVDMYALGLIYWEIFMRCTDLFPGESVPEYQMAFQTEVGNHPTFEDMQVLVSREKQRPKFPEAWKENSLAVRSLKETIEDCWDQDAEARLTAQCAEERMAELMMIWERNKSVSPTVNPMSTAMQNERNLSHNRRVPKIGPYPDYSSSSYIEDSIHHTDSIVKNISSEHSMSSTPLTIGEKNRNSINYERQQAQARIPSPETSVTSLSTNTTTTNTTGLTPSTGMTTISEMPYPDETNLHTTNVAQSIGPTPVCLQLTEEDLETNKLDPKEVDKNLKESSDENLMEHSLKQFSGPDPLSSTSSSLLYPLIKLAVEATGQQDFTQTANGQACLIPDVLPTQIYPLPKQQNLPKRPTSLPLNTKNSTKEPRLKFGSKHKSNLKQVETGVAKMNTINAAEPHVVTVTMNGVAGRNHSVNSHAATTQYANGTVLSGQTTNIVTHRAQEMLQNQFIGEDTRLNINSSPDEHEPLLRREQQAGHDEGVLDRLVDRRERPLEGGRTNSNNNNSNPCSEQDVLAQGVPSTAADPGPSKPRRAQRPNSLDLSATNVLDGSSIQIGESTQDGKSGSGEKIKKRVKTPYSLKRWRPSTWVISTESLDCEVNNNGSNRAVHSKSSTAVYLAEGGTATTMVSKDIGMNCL
The following applies: read-out: %Inh BMPR2.

For another assay, the target named is CSNK1G3 (Homo sapiens, UniProt Q9Y6M4). To be noted: read-out: %Inh CSNK1G3.
Sequence of CSNK1G3 (Q9Y6M4 whole entry): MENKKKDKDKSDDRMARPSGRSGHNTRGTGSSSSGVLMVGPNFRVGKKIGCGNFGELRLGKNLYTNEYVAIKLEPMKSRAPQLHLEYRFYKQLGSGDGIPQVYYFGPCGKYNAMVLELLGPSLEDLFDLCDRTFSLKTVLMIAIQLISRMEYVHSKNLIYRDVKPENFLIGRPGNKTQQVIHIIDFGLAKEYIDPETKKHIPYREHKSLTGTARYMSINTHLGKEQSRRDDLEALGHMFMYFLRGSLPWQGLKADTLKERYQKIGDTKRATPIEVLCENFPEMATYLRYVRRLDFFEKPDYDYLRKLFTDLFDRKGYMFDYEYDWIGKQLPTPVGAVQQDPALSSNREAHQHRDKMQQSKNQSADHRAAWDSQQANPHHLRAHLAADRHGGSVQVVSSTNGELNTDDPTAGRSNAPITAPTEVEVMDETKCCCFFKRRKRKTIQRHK
The next assay addresses CSNK2A1 (Homo sapiens, UniProt P68400). The following applies: read-out: %Inh CSNK2A1.
The target of another assay is T2, EPHB1 (Homo sapiens, UniProt P54762).
T2 sequence (P54762 18-984): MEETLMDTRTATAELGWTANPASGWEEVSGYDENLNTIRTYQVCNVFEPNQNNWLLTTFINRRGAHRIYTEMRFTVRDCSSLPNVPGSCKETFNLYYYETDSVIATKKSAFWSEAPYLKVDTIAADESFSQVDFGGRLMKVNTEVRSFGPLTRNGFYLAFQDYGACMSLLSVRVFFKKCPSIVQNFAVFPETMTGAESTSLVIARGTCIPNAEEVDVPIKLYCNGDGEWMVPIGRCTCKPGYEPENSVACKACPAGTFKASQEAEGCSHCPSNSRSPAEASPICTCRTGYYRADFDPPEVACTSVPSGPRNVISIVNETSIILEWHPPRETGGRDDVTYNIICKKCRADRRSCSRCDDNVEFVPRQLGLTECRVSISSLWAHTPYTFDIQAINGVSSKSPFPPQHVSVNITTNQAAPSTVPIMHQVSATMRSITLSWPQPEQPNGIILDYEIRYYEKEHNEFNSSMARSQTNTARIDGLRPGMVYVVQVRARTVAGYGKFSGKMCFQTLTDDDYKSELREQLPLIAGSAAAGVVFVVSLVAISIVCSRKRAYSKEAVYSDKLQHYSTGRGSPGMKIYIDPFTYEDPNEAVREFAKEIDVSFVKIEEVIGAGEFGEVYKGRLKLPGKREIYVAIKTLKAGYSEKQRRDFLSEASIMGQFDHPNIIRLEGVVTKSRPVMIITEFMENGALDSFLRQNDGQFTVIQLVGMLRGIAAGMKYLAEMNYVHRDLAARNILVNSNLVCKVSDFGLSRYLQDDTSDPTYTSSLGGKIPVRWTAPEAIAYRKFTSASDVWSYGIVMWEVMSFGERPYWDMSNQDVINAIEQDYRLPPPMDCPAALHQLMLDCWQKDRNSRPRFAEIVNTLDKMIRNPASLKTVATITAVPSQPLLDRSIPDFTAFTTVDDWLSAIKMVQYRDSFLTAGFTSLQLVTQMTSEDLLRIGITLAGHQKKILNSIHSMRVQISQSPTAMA
To be noted: read-out: %Inh EPHB1.

The next assay concerns the target T3, GRK3 (Homo sapiens, UniProt P35626).
T3 sequence (P35626 1-688): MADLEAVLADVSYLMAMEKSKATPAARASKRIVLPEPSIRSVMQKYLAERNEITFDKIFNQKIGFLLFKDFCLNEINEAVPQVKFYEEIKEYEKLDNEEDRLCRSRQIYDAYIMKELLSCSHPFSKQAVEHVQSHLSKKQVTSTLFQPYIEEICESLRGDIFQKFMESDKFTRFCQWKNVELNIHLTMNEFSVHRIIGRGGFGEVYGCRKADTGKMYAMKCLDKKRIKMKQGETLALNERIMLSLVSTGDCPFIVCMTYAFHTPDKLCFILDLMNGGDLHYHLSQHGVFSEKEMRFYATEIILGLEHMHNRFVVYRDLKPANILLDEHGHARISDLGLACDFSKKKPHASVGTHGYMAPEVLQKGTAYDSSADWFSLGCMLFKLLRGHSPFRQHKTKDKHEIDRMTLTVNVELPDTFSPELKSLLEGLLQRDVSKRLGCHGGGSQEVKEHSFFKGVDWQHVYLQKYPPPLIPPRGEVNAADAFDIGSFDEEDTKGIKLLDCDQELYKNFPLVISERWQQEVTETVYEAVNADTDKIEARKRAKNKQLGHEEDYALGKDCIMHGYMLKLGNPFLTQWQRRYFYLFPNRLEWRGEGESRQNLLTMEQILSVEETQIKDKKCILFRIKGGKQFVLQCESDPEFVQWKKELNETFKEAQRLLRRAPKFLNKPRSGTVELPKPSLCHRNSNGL
The following applies: read-out: %Inh GRK3.

For a further assay, the target named is IRAK1 (Homo sapiens, UniProt P51617). To be noted: read-out: %Inh IRAK1.
Sequence of IRAK1 (P51617 whole entry): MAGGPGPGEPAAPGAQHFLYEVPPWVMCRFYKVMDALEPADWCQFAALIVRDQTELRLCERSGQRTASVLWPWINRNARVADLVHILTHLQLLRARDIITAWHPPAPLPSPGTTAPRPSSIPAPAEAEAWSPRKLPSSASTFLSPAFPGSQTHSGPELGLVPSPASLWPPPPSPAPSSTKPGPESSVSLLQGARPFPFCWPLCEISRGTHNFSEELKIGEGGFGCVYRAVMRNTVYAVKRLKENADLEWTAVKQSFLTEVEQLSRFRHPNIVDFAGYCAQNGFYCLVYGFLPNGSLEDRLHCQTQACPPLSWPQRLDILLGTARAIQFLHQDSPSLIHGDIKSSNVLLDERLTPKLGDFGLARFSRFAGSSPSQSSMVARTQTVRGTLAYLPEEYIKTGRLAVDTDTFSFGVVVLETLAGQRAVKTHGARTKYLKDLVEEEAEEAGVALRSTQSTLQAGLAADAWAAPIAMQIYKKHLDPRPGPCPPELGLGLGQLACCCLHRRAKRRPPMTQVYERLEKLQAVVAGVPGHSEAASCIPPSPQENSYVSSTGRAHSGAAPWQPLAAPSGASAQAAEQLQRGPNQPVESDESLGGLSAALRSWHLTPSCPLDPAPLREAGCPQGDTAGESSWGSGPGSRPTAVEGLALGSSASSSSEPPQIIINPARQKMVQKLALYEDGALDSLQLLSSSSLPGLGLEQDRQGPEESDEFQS

Sequence of ABL1-phosphorylated (P00519 whole entry): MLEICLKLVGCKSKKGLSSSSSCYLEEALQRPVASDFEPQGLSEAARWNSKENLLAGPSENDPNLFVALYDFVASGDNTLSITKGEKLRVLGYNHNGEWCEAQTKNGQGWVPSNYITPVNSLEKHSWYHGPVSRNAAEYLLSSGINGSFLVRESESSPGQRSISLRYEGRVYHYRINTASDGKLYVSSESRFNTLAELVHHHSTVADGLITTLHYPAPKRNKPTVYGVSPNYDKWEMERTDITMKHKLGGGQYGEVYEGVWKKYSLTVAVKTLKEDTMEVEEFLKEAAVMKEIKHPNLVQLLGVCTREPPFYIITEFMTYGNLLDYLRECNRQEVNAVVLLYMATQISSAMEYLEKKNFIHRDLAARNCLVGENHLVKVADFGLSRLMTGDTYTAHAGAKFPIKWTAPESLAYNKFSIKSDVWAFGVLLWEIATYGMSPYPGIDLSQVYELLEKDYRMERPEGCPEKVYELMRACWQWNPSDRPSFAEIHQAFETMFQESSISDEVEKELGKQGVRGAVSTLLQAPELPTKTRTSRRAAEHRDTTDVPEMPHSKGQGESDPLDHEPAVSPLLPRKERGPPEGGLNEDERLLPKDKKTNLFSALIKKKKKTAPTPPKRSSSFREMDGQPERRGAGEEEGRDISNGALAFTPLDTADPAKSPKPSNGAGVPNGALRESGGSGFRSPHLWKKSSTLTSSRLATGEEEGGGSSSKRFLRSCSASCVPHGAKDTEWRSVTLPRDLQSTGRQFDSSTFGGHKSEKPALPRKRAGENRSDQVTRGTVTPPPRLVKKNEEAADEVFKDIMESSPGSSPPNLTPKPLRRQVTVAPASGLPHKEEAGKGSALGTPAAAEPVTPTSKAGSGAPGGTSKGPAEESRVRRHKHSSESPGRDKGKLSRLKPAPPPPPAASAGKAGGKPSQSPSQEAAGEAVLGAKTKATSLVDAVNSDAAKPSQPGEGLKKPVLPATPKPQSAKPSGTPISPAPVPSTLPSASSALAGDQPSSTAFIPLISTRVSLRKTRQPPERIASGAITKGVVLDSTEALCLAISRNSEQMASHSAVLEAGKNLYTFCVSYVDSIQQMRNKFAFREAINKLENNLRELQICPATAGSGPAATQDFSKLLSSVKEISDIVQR
Sequence of CSNK2A1 (P68400 whole entry): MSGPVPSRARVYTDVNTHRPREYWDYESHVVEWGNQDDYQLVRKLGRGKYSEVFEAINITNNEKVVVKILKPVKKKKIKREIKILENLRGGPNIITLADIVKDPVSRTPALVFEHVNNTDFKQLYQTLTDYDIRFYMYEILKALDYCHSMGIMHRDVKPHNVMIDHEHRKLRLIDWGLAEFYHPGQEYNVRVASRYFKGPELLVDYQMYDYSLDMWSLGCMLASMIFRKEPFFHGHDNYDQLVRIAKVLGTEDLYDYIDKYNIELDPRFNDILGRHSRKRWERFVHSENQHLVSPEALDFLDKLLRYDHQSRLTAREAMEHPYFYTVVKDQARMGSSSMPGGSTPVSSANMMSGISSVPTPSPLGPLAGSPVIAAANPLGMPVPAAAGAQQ

In the case of `O=c1cc(N2CCOCC2)nc2n(Cc3cccc(Cl)c3Cl)c(C3CC3)nn12` [UNC10225469A], the inhibition at 1 µM was found to be 20% on ABL1-phosphorylated; 13% on BMPR2; 23% on CSNK1G3; 16% at CSNK2A1; 0% at EPHB1; 0% at GRK3. The inhibition at 1 µM on IRAK1 came to 0%.
Consider `COc1cccc(OC)c1C(=O)Nc1cccc(-c2nn3ccccc3c2-c2ccnc(Nc3cccc(F)c3)n2)c1` [UNC10225310A], for which the inhibition at 1 µM was found to be 18% on ABL1-phosphorylated; 0% at BMPR2; 3% at CSNK1G3; 0% at CSNK2A1; 100% on EPHB1; 0% on GRK3. On IRAK1, the inhibition at 1 µM turned out to be 0%.
In the case of `CS(=O)(=O)Cc1ccc(Nc2nccc(-c3c(-c4cccc(NC(=O)C5CCCCC5)c4)nn4ncccc34)n2)cc1` [UNC10225159A], the inhibition at 1 µM at ABL1-phosphorylated turned out to be 15%; on BMPR2 it was 24%; at CSNK1G3 it was 4%; on CSNK2A1, 17%; at EPHB1 it was 2%; at GRK3, 0%. In addition, on IRAK1, the inhibition at 1 µM worked out at 24%.
In the case of `Cc1ccc(NC(=O)Nc2cccc(C(F)(F)F)c2)cc1` [UNC10225187A], the inhibition at 1 µM on ABL1-phosphorylated was 23%; on BMPR2 it was 1%; on CSNK1G3, 0%; on CSNK2A1, 1%; on EPHB1, 5%; on GRK3 it was 0%. For the same compound, at IRAK1, the inhibition at 1 µM is 0%.
For `Cn1cc(-c2cnc(N)c3c(-c4ccc5c(c4)CCN5C(=O)Cc4ccccc4)csc23)cn1` [UNC10225012A], the inhibition at 1 µM at ABL1-phosphorylated stood at 89%; at BMPR2, 6%; on CSNK1G3, 22%; on CSNK2A1, 0%; at EPHB1, 6%; at GRK3, 0%. In addition, the inhibition at 1 µM at IRAK1 turned out to be 0%.
